Assay results taken from patent publication US8552201B2, “5, 6-bisaryl-2-pyridine-carboxamide derivatives, preparation and application thereof in therapeutics as urotensin II receptor antagonists” (Sanofi, priority 2006, dated 2013).
Counter-ions that a name gives are not always drawn.

Assays:
human GPR14 receptor = target: T1, human GPR14 receptor (Homo sapiens, UniProt Q9UKP6); test: FlipR test of intracellular calcium mobilization (CHO GPR14 cells, urotensin II 3 nM); format: cell-based; details: CHOGPR14 cells, inhibition of urotensin II (3 nM final) induced Ca2+ increase, Fluo-4AM
T1 construct: expressed in transfected cells; host or cells: CHO cells (CHOGPR14)
T1 sequence (Q9UKP6 1-389): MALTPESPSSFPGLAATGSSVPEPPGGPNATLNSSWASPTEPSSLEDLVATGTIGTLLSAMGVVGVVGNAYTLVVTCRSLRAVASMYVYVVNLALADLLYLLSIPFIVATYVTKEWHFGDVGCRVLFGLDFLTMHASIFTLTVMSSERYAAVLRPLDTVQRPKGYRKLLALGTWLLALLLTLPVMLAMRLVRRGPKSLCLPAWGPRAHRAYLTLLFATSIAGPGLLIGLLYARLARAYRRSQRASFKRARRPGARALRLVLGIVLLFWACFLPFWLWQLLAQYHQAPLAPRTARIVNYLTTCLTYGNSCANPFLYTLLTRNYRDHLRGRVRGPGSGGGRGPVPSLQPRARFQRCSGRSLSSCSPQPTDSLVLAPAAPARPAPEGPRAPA
Source text: (§1) The compounds according to the invention have undergone pharmacological testing for determining the properties of the compounds of the invention, including in particular: • a test in vitro of intracellular calcium mobilization (FlipR test) employing urotensin II antagonists (the compounds of the present invention) of the human GPR14 receptor, • a function test of contraction of rat aorta rings, also employing urotensin II antagonists represented by the compounds of the present invention.
1. FlipR (Fluorometric Imaging Plate Reader) Protocol
The purpose is to measure the activation of the GPR14 receptor by human urotensin II.
GPR14 is a Gq-coupled receptor with 7 transmembrane domains. Its activation by a specific ligand causes an increase in Ca^2+ in the cell via the PLC (Phospholipase C), IP3 (Inositol-1,4,5-triphosphate) DAG (Diacylglycerol) pathway. The increase in Ca^2+ in the cell is measured by means of the Fluo4AM permeating probe (mono-excitation, mono-emission probe) which binds to free Ca^2+ and emits at 520 nm. The free probe is non-fluorescent in the absence of Ca^2+.
1) Seeding of the cells on D−1 (Day−1) or D−2
2) Incorporation/loading (D0) of the probe (1 h)
3) Addition of the products to the FlipR and measurement
4) Addition of the ligand to the FlipR and measurement in the presence of the products
5) Processing and exporting the data
The cells are cultivated in complete medium in Flask T225. For the experiments, the cells are transplanted in 200 μl of culture medium in 96-well (black, transparent-bottom) plates at a rate of 60 000 cells/well for use on D+1 or 40 000 cells/well for use on D+2.
The Fluo-4AM is prepared at 20 mM then aliquots are taken (50 μl) and stored at −20° C. away from the light. A solution of pluronic acid at 200 mg/ml in DMSO is also prepared (it has a shelf life of one week at room temperature away from the light).
The cells are charged with the Fluo-4AM+pluronic acid mixture (aliquot 50 μl+50 μl of pluronic acid) diluted to 1/100 in the measurement buffer.
After washing the wells with 150 μl of measurement buffer (cf. annex), the cells are then charged as follows: • distribution of 100 μl of measurement buffer in each well • addition of 10 μl of the Fluo-4AM+pluronic acid mixture diluted to 1/100.
The cells are incubated for 1 h at 37° C. away from the light, in an incubator in the presence of 5% CO2.
The cells are then washed 3 times with 150 μl of measurement buffer to remove the excess of the probe. A volume of 150 μl of buffer is added to each well at the end of washing.
After incubating the plates for 20 min at room temperature away from the light, they are placed in the FlipR for measurement of fluorescence.
The level of basic incorporation of the Fluo-4 is checked for each plate (sd<10%) before the first injection.
After stabilization of the basic signal, the GPR14 inhibiting compounds are injected by the FlipR under a volume of 50 μl from a dilution plate effected with Biomek 2000 in measurement buffer. […] Data recording is carried out continuously throughout the experiment.
For each plate, the basic fluorescence before injection of the compounds is standardized by the “spatial uniformity correction” function of the FlipR. The values of fluorescence measured just before injection of urotensin II (min) and those of the fluorescence measured at the peak of the effect of urotensin II (max) are exported under Excel. In each plate, a series of wells is treated with urotensin alone in the absence of inhibitor compound. The min and max fluorescence values for these wells are averaged for defining 100% effect of urotensin II. The percentage inhibition calculated for each concentration of inhibitor is calculated as follows: • for each well with Uro II (urotensin II)+inhibitor, calculation of the delta product value=max−min • for the well with Uro II alone, calculation of the value delta Uro II (average max−average min) […]

[1] = target: T2, urotensin II receptors (rat aorta rings) (Rattus norvegicus, UniProt P49684); test: Contraction of rat aorta rings induced by human urotensin II; details: endothelium-denuded Sprague-Dawley rat aorta rings, antagonist added 30 min before urotensin II, single concentration
T2 construct: The aortas are removed, washed and, after removing the endothelium, are cut into 4 rings; from tissue; host or cells: rat thoracic aorta rings, endothelium removed (Sprague-Dawley)
T2 sequence (P49684 1-386): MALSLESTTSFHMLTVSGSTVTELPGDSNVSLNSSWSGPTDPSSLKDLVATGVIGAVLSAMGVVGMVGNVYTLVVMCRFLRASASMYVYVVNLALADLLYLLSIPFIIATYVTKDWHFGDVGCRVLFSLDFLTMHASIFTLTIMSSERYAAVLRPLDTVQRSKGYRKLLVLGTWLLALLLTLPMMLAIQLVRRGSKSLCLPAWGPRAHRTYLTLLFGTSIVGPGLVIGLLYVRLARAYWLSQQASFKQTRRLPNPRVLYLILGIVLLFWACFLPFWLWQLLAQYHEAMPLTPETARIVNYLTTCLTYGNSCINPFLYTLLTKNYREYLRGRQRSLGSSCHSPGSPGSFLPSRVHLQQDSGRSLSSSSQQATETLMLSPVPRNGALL
Source text: as §1
2. Contraction of Rat Aorta
Male Sprague-Dawley rats (400-500 g; C. River, France) are anaesthetized with 6% sodium pentobarbital (Ceva SantéAnimale) by intraperitoneal injection (0.4-0.5 ml), and then euthanized by exsanguination. The aortas are removed, washed and, after removing the endothelium, are cut into 4 rings of about 0.2-0.3 cm. Each fragment is placed in a container for isolated organs, containing 20 mL of Krebs solution with the following composition (mM): NaCl 118; KCl 4.7; MgCl2 1.2; CaCl2 2.6; NaHCO3 25; glucose 11.1; (pH=7.4).
The tissue, maintained at 37° and aerated with a stream of carbogen (95% O2-5% CO2), is connected to a Grass FT03 isometric sensor under a basic strain of 2 g, and to a Gould series 6600 amplifier for recording the variations in strain. Data acquisition is effected automatically on an HP Compaq PC using IOX software (version 2.2) from the company Emka.
After stabilization for 60 min, the viability of the preparation is tested by prestimulation with 60 mM of KCl. This contraction is repeated a second time and the strain that developed will serve as reference (100%) for standardizing the response to urotensin II.
The curve of concentration v. contractile response to urotensin II is then constructed cumulatively until a maximum response is obtained.
A single concentration-response curve is recorded owing to the desensitization effects induced by urotensin II.
The antagonists or the vehicle (DMSO 0.15% maximum) are added to the container 30 min before the agonist.
Human urotensin II is obtained from Bachem Ltd (UK) and is dissolved in 0.1% of BSA.
The responses are expressed as percentage of the maximum contraction observed with KCl. The results represent the mean+/−sem of the individual responses. N corresponds to the number of animals per batch.
Analysis of the sigmoid curves using the Everstat software (De Lean A, Munson P J, Rodbard D., Am J Physiol 1978; 235(2): E97-102.) permitted the EC50 (concentration producing 50% of the maximum response) and the Emax (maximum effect) to be determined.
To evaluate the potency of the antagonists based on a single concentration, the pKb were calculated according to the equation: pKb=−log [antagonist]M+log(concentration-ratio−1) (Furchgott R F, Blaschko H, Muscholl E, editors. Handbook of Exp Pharmacol, Catecholamines, Springer, Berlin Heidelberg N.Y.; 1972; 33:283-335) where concentration-ratio is the EC50 of the agonist in the presence of the antagonist divided by the EC50 of the agonist in the absence of the antagonist.
If several concentrations of antagonist are tested, the pA2 (±confidence limits) is calculated by the Schild plot method (Arunlakshana O and Schild H O, Br J Pharmacol, 1959; 14:48-58).

Compound | IC50 (human GPR14 receptor) [µM] | Kb [1] [µM] | melting point [°C]
Cc1ccccc1-c1ccc(C(=O)NC2(C(=O)O)C3CC4CC(C3)CC2C4)nc1-c1ccc(Cl)c(OCCCN(C)C)c1 (stereo not shown) [Compound No. 18, 2-({[6-{4-Chloro-3-[3-(dimethylamino)propoxy]phenyl}-5-(2-methylphenyl)pyridin-2-yl]carbonyl}amino)adamantane-2-carboxylic acid hydrochloride] | 0.019 | 0.316 | 
Cc1ccccc1-c1ccc(C(=O)NC2(C(=O)O)CCCCC2)nc1-c1ccc(Cl)c(OCCCN(C)C)c1.Cl [compound 34, 1-({[6-{4-Chloro-3-[3-(dimethylamino)propoxy]phenyl}-5-(2-methylphenyl)pyridin-2-yl]carbonyl}amino)cyclohexanecarboxylic acid hydrochloride] | 0.025 | 0.0794 | 146 to 150
Cc1ccccc1-c1ccc(C(=O)N[C@@H](CC(=O)O)C(C)C)nc1-c1ccc(Cl)c(OCCCN(C)C)c1 [compound 37] | 0.072 | 0.0316 | 
Cc1cccnc1-c1ccc(C(=O)NC2(C(=O)O)CCCCC2)nc1-c1ccc(Cl)c(OCCCN(C)C)c1 [compound 58] | 0.028 | 0.251 | 
Cc1ncccc1-c1ccc(C(=O)NC2(C(=O)O)CCCCC2)nc1-c1ccc(Cl)c(OCCCN(C)C)c1 [compound 61] | 0.009 | 0.0794 | 
CN(C)CCCOc1cc(-c2nc(C(=O)NC3(C(=O)O)CCCCC3)ccc2-c2ncc(Cl)cc2Cl)ccc1Cl [compound 65, 1-{[(3,5-Dichloro-2′-{4-chloro-3-[3-(dimethylamino)propoxy]phenyl}-2,3′-bipyridin-6′-yl)carbonyl]amino}cyclohexanecarboxylic acid hydrochloride] | 0.032 | 0.316 | 
Cc1ccc(-c2ccc(C(=O)NC3(C(=O)O)CCCCC3)nc2-c2ccc(Cl)c(OCCCN(C)C)c2)c(C)c1 [compound 66, 1-({[6-{4-Chloro-3-[3-(dimethylamino)propoxy]phenyl}-5-(2,4-dimethylphenyl)pyridin-2-yl]carbonyl}amino)cyclohexanecarboxylic acid hydrochloride] | 0.0042 | 0.2 | 
CCc1ccccc1-c1ccc(C(=O)NC2(C(=O)O)CCCCC2)nc1-c1ccc(Cl)c(OCCCN(C)C)c1 [compound 67] | 0.013 | 0.2 | 
Cc1ccc(C)c(-c2ccc(C(=O)NC3(C(=O)O)CCCCC3)nc2-c2ccc(Cl)c(OCCCN(C)C)c2)c1 [compound 70] | 0.032 | 0.631 | 
Cc1ccccc1-c1ccc(C(=O)NC2(C(=O)O)CCCCCC2)nc1-c1ccc(Cl)c(OCCCN(C)C)c1 [compound 71] | 0.024 | 0.501 | 
Cc1cc(C)n(-c2ccc(C(=O)NC3(C(=O)O)CCCCC3)nc2-c2ccc(Cl)c(OCCCN(C)C)c2)n1 [compound 75, 1-({[6-{4-Chloro-3-[3-(dimethylamino)propoxy]phenyl}-5-(3,5-dimethyl-1H-pyrazol-1-yl)pyridin-2-yl]carbonyl}amino)cyclohexanecarboxylic acid hydrochloride] | 0.021 | 0.251 | 
COc1ccc(-c2ccc(C(=O)NC3(C(=O)O)CCCCC3)nc2-c2ccc(Cl)c(OCCCN(C)C)c2)c(Cl)c1 [compound 79] | 0.031 | 0.158 | 
Cc1ccc(C(C)C)cc1-c1ccc(C(=O)NC2(C(=O)O)CCCCC2)nc1-c1ccc(Cl)c(OCCCN(C)C)c1 [compound 120] | 0.016 | 0.0794 | 
Cc1ccc(-c2ncc(C(=O)NC3(C(=O)O)CCCCC3)nc2-c2ccc(Cl)c(OCCCN(C)C)c2)c(C)c1 [compound 123] | 0.0042 | 0.316 | 
Cc1ccccc1-c1nc(N)c(C(=O)NC2(C(=O)O)CCCCC2)nc1-c1ccc(Cl)c(OCCCN(C)C)c1 [compound 129, 1-({[3-amino-6-{4-chloro-3-[3-(dimethylamino)propoxy]phenyl}-5-(2-methylphenyl)pyrazin-2-yl]carbonyl}amino)cyclohexanecarboxylic acid hydrochloride] | 0.015 | 0.158 | 
